Results published in PubChem BioAssay (NCI).
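Each compound was tested at five concentrations against cells in 96-well plates for 48 hours. Definition used: TGI = concentration required for complete inhibition of growth.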

Assays:
Assay in all cases: NCI tumour cell line growth inhibition, 48 h
786-0 renal = tested on: 786-0 renal
A498 renal = tested on: A498 renal
A549 NSCLC = tested on: A549 NSCLC
ACHN renal = tested on: ACHN renal
BT-549 breast = tested on: BT-549 breast
CAKI-1 renal = tested on: CAKI-1 renal
CCRF-CEM leukemia = tested on: CCRF-CEM leukemia
COLO 205 colon = tested on: COLO 205 colon
DU-145 prostate = tested on: DU-145 prostate
EKVX NSCLC = tested on: EKVX NSCLC
HCC-2998 colon = tested on: HCC-2998 colon
HCT-116 colon = tested on: HCT-116 colon
HCT-15 colon = tested on: HCT-15 colon
HL-60(TB) leukemia = tested on: HL-60(TB) leukemia
HOP-62 NSCLC = tested on: HOP-62 NSCLC
HOP-92 NSCLC = tested on: HOP-92 NSCLC
HS 578T breast = tested on: HS 578T breast
HT29 colon = tested on: HT29 colon
IGROV1 ovarian = tested on: IGROV1 ovarian
K-562 leukemia = tested on: K-562 leukemia
KM12 colon = tested on: KM12 colon
LOX IMVI melanoma = tested on: LOX IMVI melanoma
M14 melanoma = tested on: M14 melanoma
MALME-3M melanoma = tested on: MALME-3M melanoma
MCF7 breast = tested on: MCF7 breast
MDA-MB-231 breast = tested on: MDA-MB-231 breast
MDA-MB-435 = tested on: MDA-MB-435
MDA-N = tested on: MDA-N
MOLT-4 leukemia = tested on: MOLT-4 leukemia
NCI-H226 lung = tested on: NCI-H226 lung
NCI-H23 lung = tested on: NCI-H23 lung
NCI-H460 lung = tested on: NCI-H460 lung
NCI-H522 lung = tested on: NCI-H522 lung
NCI/ADR-RES ovarian = tested on: NCI/ADR-RES ovarian
OVCAR-3 ovarian = tested on: OVCAR-3 ovarian
OVCAR-4 ovarian = tested on: OVCAR-4 ovarian
OVCAR-5 ovarian = tested on: OVCAR-5 ovarian
OVCAR-8 ovarian = tested on: OVCAR-8 ovarian
PC-3 prostate = tested on: PC-3 prostate
RPMI-8226 leukemia = tested on: RPMI-8226 leukemia
SF-295 CNS = tested on: SF-295 CNS
SK-MEL-2 melanoma = tested on: SK-MEL-2 melanoma
SK-MEL-28 melanoma = tested on: SK-MEL-28 melanoma
SK-MEL-5 melanoma = tested on: SK-MEL-5 melanoma
SK-OV-3 ovarian = tested on: SK-OV-3 ovarian
SN12C renal = tested on: SN12C renal
SNB-19 CNS = tested on: SNB-19 CNS
SNB-75 CNS = tested on: SNB-75 CNS
SR leukemia = tested on: SR leukemia
SW-620 colon = tested on: SW-620 colon
T-47D breast = tested on: T-47D breast
TK-10 renal = tested on: TK-10 renal
U251 CNS = tested on: U251 CNS
UACC-257 melanoma = tested on: UACC-257 melanoma
UACC-62 melanoma = tested on: UACC-62 melanoma
UO-31 renal = tested on: UO-31 renal
SF-268 CNS = tested on: SF-268 CNS
SF-539 CNS = tested on: SF-539 CNS

Which TGI (786-0 renal) does the source give for `CCOC(=O)C(CS)NC(=O)CCCCCCCC(=O)O` (stereo not given) here?
Its TGI is greater than 100000 nM.

And the TGI (A498 renal)?
Its TGI is greater than 100 µM.

And the TGI (A549 NSCLC)?
The TGI was greater than 100 µM.

What about the TGI (ACHN renal) of the same compound?
Its TGI is greater than 100 µM.

And the TGI (BT-549 breast)?
The TGI was greater than 100 µM.

And the TGI (CAKI-1 renal)?
The TGI was greater than 100000 nM.

What about the TGI (CCRF-CEM leukemia) of the same compound?
The TGI was greater than 100 µM.

What about the TGI (COLO 205 colon) of the same compound?
The TGI was greater than 100000 nM.

And the TGI (DU-145 prostate)?
Its TGI is greater than 100000 nM.

What about the TGI (EKVX NSCLC) of the same compound?
Its TGI is greater than 100 µM.

What about the TGI (HCC-2998 colon) of the same compound?
The TGI was greater than 100 µM.

And the TGI (HCT-116 colon)?
The TGI was greater than 100000 nM.

And the TGI (HCT-15 colon)?
The TGI was greater than 100 µM.

What about the TGI (HL-60(TB) leukemia) of the same compound?
Its TGI is greater than 100 µM.

What about the TGI (HOP-62 NSCLC) of the same compound?
Its TGI is greater than 100000 nM.

And the TGI (HOP-92 NSCLC)?
The TGI was greater than 100 µM.

What about the TGI (HS 578T breast) of the same compound?
The TGI was greater than 100 µM.

What about the TGI (HT29 colon) of the same compound?
The TGI was greater than 100000 nM.

What about the TGI (IGROV1 ovarian) of the same compound?
The TGI was greater than 100000 nM.

And the TGI (K-562 leukemia)?
The TGI was greater than 100 µM.

And the TGI (KM12 colon)?
Its TGI is greater than 100000 nM.

What about the TGI (LOX IMVI melanoma) of the same compound?
The TGI was greater than 100 µM.

And the TGI (M14 melanoma)?
Its TGI is greater than 100000 nM.

What about the TGI (MALME-3M melanoma) of the same compound?
Its TGI is greater than 100000 nM.

What about the TGI (MCF7 breast) of the same compound?
Its TGI is greater than 100000 nM.

And the TGI (MDA-MB-231 breast)?
The TGI was greater than 100000 nM.

What about the TGI (MDA-MB-435) of the same compound?
Its TGI is greater than 100 µM.

And the TGI (MDA-N)?
Its TGI is greater than 100000 nM.

What about the TGI (MOLT-4 leukemia) of the same compound?
The TGI was greater than 100 µM.

And the TGI (NCI-H226 lung)?
Its TGI is greater than 100 µM.

And the TGI (NCI-H23 lung)?
The TGI was greater than 100000 nM.

What about the TGI (NCI-H460 lung) of the same compound?
Its TGI is greater than 100000 nM.

What about the TGI (NCI-H522 lung) of the same compound?
Its TGI is greater than 100 µM.

What about the TGI (NCI/ADR-RES ovarian) of the same compound?
Its TGI is greater than 100000 nM.

What about the TGI (OVCAR-3 ovarian) of the same compound?
Its TGI is greater than 100000 nM.

What about the TGI (OVCAR-4 ovarian) of the same compound?
The TGI was greater than 100 µM.

What about the TGI (OVCAR-5 ovarian) of the same compound?
The TGI was greater than 100000 nM.

What about the TGI (OVCAR-8 ovarian) of the same compound?
The TGI was greater than 100000 nM.

What about the TGI (PC-3 prostate) of the same compound?
Its TGI is greater than 100000 nM.

And the TGI (RPMI-8226 leukemia)?
The TGI was greater than 100 µM.

And the TGI (SF-295 CNS)?
The TGI was greater than 100000 nM.

And the TGI (SK-MEL-2 melanoma)?
Its TGI is greater than 100 µM.

And the TGI (SK-MEL-28 melanoma)?
Its TGI is greater than 100000 nM.

What about the TGI (SK-MEL-5 melanoma) of the same compound?
The TGI was greater than 100 µM.

And the TGI (SK-OV-3 ovarian)?
Its TGI is greater than 100 µM.

What about the TGI (SN12C renal) of the same compound?
The TGI was greater than 100 µM.

What about the TGI (SNB-19 CNS) of the same compound?
The TGI was greater than 100 µM.

What about the TGI (SNB-75 CNS) of the same compound?
Its TGI is greater than 100 µM.

What about the TGI (SR leukemia) of the same compound?
Its TGI is greater than 100 µM.

What about the TGI (SW-620 colon) of the same compound?
Its TGI is greater than 100 µM.

What about the TGI (T-47D breast) of the same compound?
The TGI was greater than 100 µM.

And the TGI (TK-10 renal)?
The TGI was greater than 100 µM.

And the TGI (U251 CNS)?
The TGI was greater than 100 µM.

And the TGI (UACC-257 melanoma)?
Its TGI is greater than 100 µM.

What about the TGI (UACC-62 melanoma) of the same compound?
Its TGI is greater than 100 µM.

And the TGI (UO-31 renal)?
Its TGI is greater than 100 µM.

`Cc1c2ccccc2c(C)n2c1nc1cc3ccccc3cc12` was tested. Which TGI (786-0 renal) did it give?
Its TGI is 2180 nM.

And the TGI (A549 NSCLC)?
The TGI was 3.6 µM.

What about the TGI (ACHN renal) of the same compound?
The TGI was greater than 10 µM.

What about the TGI (BT-549 breast) of the same compound?
Its TGI is 3.98 µM.

What about the TGI (CAKI-1 renal) of the same compound?
The TGI was 2890 nM.

And the TGI (CCRF-CEM leukemia)?
Its TGI is 6.65 µM.

And the TGI (COLO 205 colon)?
Its TGI is 2820 nM.

And the TGI (DU-145 prostate)?
Its TGI is 2780 nM.

What about the TGI (EKVX NSCLC) of the same compound?
The TGI was 9.75 µM.

What about the TGI (HCC-2998 colon) of the same compound?
The TGI was 3.27 µM.

And the TGI (HCT-116 colon)?
The TGI was 2710 nM.

And the TGI (HCT-15 colon)?
The TGI was 3.67 µM.

And the TGI (HL-60(TB) leukemia)?
The TGI was 4.59 µM.

What about the TGI (HOP-62 NSCLC) of the same compound?
Its TGI is 2760 nM.

What about the TGI (HOP-92 NSCLC) of the same compound?
The TGI was 8.89 µM.

And the TGI (HS 578T breast)?
The TGI was 3.56 µM.

And the TGI (HT29 colon)?
The TGI was 2150 nM.

What about the TGI (IGROV1 ovarian) of the same compound?
The TGI was 2530 nM.

And the TGI (K-562 leukemia)?
The TGI was greater than 10 µM.

And the TGI (KM12 colon)?
The TGI was 2620 nM.

What about the TGI (M14 melanoma) of the same compound?
Its TGI is 2760 nM.

And the TGI (MALME-3M melanoma)?
Its TGI is 2630 nM.

What about the TGI (MCF7 breast) of the same compound?
The TGI was 1600 nM.

And the TGI (MDA-MB-231 breast)?
Its TGI is 2710 nM.

What about the TGI (MDA-MB-435) of the same compound?
Its TGI is 3.07 µM.

What about the TGI (MDA-N) of the same compound?
Its TGI is 2890 nM.

What about the TGI (MOLT-4 leukemia) of the same compound?
The TGI was 3.78 µM.

What about the TGI (NCI-H23 lung) of the same compound?
The TGI was 2800 nM.

What about the TGI (NCI-H460 lung) of the same compound?
The TGI was 2550 nM.

What about the TGI (NCI-H522 lung) of the same compound?
The TGI was 4.88 µM.

And the TGI (NCI/ADR-RES ovarian)?
Its TGI is 2380 nM.

And the TGI (OVCAR-3 ovarian)?
The TGI was 2180 nM.

And the TGI (OVCAR-4 ovarian)?
The TGI was 3.12 µM.

What about the TGI (OVCAR-5 ovarian) of the same compound?
Its TGI is 2290 nM.

What about the TGI (OVCAR-8 ovarian) of the same compound?
Its TGI is 2210 nM.

And the TGI (PC-3 prostate)?
The TGI was 2790 nM.

What about the TGI (RPMI-8226 leukemia) of the same compound?
The TGI was 6.13 µM.

And the TGI (SF-268 CNS)?
Its TGI is 3.32 µM.

And the TGI (SF-295 CNS)?
Its TGI is 2280 nM.

And the TGI (SF-539 CNS)?
Its TGI is 2860 nM.

What about the TGI (SK-MEL-2 melanoma) of the same compound?
Its TGI is 4.99 µM.

What about the TGI (SK-MEL-28 melanoma) of the same compound?
The TGI was 2920 nM.

What about the TGI (SK-MEL-5 melanoma) of the same compound?
Its TGI is 4.46 µM.

What about the TGI (SK-OV-3 ovarian) of the same compound?
The TGI was 7.74 µM.

And the TGI (SN12C renal)?
The TGI was greater than 10 µM.

What about the TGI (SNB-19 CNS) of the same compound?
The TGI was 5.01 µM.

And the TGI (SNB-75 CNS)?
The TGI was 3.48 µM.

What about the TGI (SR leukemia) of the same compound?
The TGI was 7.34 µM.

What about the TGI (SW-620 colon) of the same compound?
The TGI was greater than 10 µM.

And the TGI (T-47D breast)?
The TGI was greater than 10 µM.

What about the TGI (TK-10 renal) of the same compound?
The TGI was 8.43 µM.

What about the TGI (U251 CNS) of the same compound?
Its TGI is 3.7 µM.

And the TGI (UACC-257 melanoma)?
The TGI was greater than 10 µM.

What about the TGI (UACC-62 melanoma) of the same compound?
The TGI was 3.9 µM.
